One series has as its target hERG channels (Homo sapiens (Human), UniProt Q12809). Nature of the series: hERG Manual Patch Clamp Assay (HEK 293 cells stably expressing hERG channels). The series is classed as cell-based. The settings on record: human, HEK 293 cells stably expressing hERG channels, pH 7.4. A general note: The hERG channel carries a current that helps repolarise heart muscle cells.
A further series deals with hROMK (human Kir1.1) (Homo sapiens (Human), UniProt P48048). Nature of the series: Thallium Flux Assay (FluxOR, CHO T-Rex hROMK stable cell line). The conditions noted are these: CHO T-Rex hROMK cells, 10-point concentration response curve; read-out: Human ROMK TH Flux IC50. It is filed as cell-based.
hROMK (human Kir1.1), sequence (P48048 whole entry): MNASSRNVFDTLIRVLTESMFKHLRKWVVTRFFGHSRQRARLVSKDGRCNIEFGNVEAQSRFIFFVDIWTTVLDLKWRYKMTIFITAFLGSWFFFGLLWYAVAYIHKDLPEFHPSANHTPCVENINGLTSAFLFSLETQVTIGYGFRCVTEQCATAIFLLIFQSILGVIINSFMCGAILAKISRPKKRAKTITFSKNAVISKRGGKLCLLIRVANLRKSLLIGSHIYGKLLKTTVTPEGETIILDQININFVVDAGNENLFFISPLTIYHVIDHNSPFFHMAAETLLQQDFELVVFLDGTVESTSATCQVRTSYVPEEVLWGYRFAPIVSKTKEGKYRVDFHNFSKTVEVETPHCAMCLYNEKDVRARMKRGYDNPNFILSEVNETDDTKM

hERG channels, sequence (Q12809 whole entry): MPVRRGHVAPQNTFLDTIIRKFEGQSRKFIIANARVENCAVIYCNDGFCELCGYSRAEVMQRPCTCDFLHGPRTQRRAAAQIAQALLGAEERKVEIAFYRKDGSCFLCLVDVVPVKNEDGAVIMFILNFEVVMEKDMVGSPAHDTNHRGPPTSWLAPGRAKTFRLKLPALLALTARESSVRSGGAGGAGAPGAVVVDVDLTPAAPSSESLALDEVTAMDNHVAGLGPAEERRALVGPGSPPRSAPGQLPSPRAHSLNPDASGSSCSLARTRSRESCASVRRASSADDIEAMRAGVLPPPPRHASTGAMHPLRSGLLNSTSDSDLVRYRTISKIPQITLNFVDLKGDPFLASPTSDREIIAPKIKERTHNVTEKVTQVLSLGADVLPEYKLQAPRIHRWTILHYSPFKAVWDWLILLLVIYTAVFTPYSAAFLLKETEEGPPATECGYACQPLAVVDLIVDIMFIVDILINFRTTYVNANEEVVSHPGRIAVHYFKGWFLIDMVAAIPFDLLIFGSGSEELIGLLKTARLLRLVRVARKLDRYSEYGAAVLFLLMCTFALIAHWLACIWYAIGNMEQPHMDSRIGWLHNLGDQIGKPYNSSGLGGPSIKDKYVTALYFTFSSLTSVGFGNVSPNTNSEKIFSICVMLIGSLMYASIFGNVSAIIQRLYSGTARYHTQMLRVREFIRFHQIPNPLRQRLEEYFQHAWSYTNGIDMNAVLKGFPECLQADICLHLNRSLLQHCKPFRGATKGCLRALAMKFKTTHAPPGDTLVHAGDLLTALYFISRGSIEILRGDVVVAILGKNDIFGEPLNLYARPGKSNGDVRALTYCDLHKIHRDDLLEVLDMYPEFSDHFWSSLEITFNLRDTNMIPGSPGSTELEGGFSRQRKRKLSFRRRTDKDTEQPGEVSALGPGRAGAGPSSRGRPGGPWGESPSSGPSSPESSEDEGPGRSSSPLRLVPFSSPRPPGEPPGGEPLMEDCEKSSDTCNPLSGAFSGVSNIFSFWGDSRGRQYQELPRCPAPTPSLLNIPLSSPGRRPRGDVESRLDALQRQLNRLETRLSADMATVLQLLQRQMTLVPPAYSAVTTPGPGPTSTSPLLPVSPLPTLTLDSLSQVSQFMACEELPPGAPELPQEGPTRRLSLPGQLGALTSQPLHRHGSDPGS
Experimental for hERG channels: hERG electrophysiology assay: The experimental compounds were assessed for hERG activity on HEK 293 cells stably expressing hERG channels using patch clamp technique. Coverslips plated with hERG expressing cells were placed in the experimental chamber and were perfused with a solution composed of (in mM): 140 NaCl, 4 KCl, 1.8 CaCl2), 1 MgCl2, 10 Glucose, 10 HEPES (pH 7.4, NaOH) at room temperature. Borosilicate patch pipettes had tip resistances of 2-4 Mohms when filled with an internal solution containing: 130 KCl, 1 MgCl2, 1 CaCl2), 10 EGTA, 10 HEPES, 5 ATP-K2 (pH 7.2, KOH). The cells were clamped at −80 mV in whole cell configuration using an Axopatch 200B (Axon instruments, Union City, Calif.) patch clamp amplifier controlled by pClamp (Axon instruments) software. Upon formation of a gigaseal, the following voltage protocol was repeatedly (0.05 Hz) applied to record tail currents: depolarization step from −80 mV to +20 mV for 2 seconds followed by a hyperpolarization step to −65 mV (3 seconds) to elicit tail currents. Compounds were applied after stabilization of tail current. First, tail currents were recorded in presence of extracellular solution alone (control) and subsequently, in extracellular solution containing increasing compound concentrations. Each compound concentration was applied for 2-5 minutes. The percentage inhibition at each concentration was calculated as reduction in peak tail current with respect to the peak tail current recorded in the presence of control solution. Data analysis was performed in a custom made template. The percent inhibitions at different concentrations were plotted to obtain a concentration response curve, which was subsequently fitted with a four parameter equation to calculate hERG IC50 value.
A lower hERG % Inhibition value indicates less inhibition of the hERG current

Broadly, the inhibition is how much of the control response was suppressed. Read a high inhibition as a response far below the control. By IC50 is commonly meant the concentration that inhibits the measured activity by half. `Cc1cc(-n2cnc(CNC[C@H](O)c3ccc4c(c3C)COC4=O)c2)nc(C)c1C#N` [Example 68, (R)-6-(4-(((2-hydroxy-2-(4-methyl-1-oxo-1,3-dihydroisobenzofuran-5-yl)ethyl)amino)methyl)-1H-imidazol-1-yl)-2,4-dimethylnicotinonitrile] came in with an inhibition at 1 µM at hERG channels of 17%. Also, the IC50 on hROMK (human Kir1.1) was 38 nM.
For `COc1cc(-n2cc(CNC[C@H](O)c3ccc4c(c3C)COC4=O)cn2)nc(C)c1C#N` [Example 70, (R)-6-(4-(((2-hydroxy-2-(4-methyl-1-oxo-1,3-dihydroisobenzofuran-5-yl)ethyl)amino)methyl)-1H-pyrazol-1-yl)-4-methoxy-2-methylnicotinonitrile], at hERG channels, the inhibition at 1 µM was 27%. Further, at hROMK (human Kir1.1), the IC50 was 19 nM.
On the same counts, the results for `Cc1cc(-n2cc(CNC[C@H](O)c3ccc4c(c3C)COC4=O)cn2)nc(C)c1C#N` [Example 71, (R)-6-(4-(((2-hydroxy-2-(4-methyl-1-oxo-1,3-dihydroisobenzofuran-5-yl)ethyl)amino)methyl)-1H-pyrazol-1-yl)-2,4-dimethylnicotinonitrile] are 39% and 22 nM.
At hERG channels, `COc1nc(-n2cc(CNC[C@H](O)c3ccc4c(c3C)COC4=O)cn2)cc(C)c1C#N` [Example 72, (R)-6-(4-(((2-hydroxy-2-(4-methyl-1-oxo-1,3-dihydroisobenzofuran-5-yl)ethyl)amino)methyl)-1H-pyrazol-1-yl)-2-methoxy-4-methylnicotinonitrile] came in with an inhibition at 1 µM of 35%. In addition, on hROMK (human Kir1.1), the half-maximal inhibitory concentration (IC50) stood at 14 nM.
The like results for `Cc1cc(-n2cc(CNC[C@H](O)c3ccc4c(c3C)COC4=O)cn2)cnc1C#N` [Example 73, (R)-5-(4-(((2-hydroxy-2-(4-methyl-1-oxo-1,3-dihydroisobenzofuran-5-yl)ethyl)amino)methyl)-1H-pyrazol-1-yl)-3-methylpicolinonitrile] were, in that order, 31% and 36 nM.
Regarding `Cc1cc(-n2cc(CNC[C@H](O)c3ccc4c(c3C)COC4=O)c(C)n2)ncc1C#N` [Example 74, (R)-6-(4-(((2-hydroxy-2-(4-methyl-1-oxo-1,3-dihydroisobenzofuran-5-yl)ethyl)amino)methyl)-3-methyl-1H-pyrazol-1-yl)-4-methylnicotinonitrile], the inhibition at 1 µM at hERG channels came to 32%. Moreover, the IC50 at hROMK (human Kir1.1) turned out to be 59 nM.
For `Cc1c([C@@H](O)CNCc2cnn(-c3ccc4c(c3C)COC4=O)c2)ccc2c1COC2=O` [Example 75, (R)-5-(1-hydroxy-2-(((1-(4-methyl-1-oxo-1,3-dihydroisobenzofuran-5-yl)-1H-pyrazol-4-yl)methyl)amino)ethyl)-4-methylisobenzofuran-1(3H)-one], the inhibition at 1 µM on hERG channels worked out at 4.3%. Moreover, the IC50 at hROMK (human Kir1.1) was determined as 65 nM.
In the case of `COc1cc(-c2ccc(CNC[C@H](O)c3ccc4c(c3C)COC4=O)c(OC)n2)ncc1C#N` [Example 82, (R)-5′-(((2-hydroxy-2-(4-methyl-1-oxo-1,3-dihydroisobenzofuran-5-yl)ethyl)amino)methyl)-4,6′-dimethoxy-[2,2′-bipyridine]-5-carbonitrile], the inhibition at 1 µM against hERG channels worked out at 44%. Besides, the IC50 at hROMK (human Kir1.1) was 31 nM.
At hERG channels, `Cc1ncn(-c2ncc(CNC[C@H](O)c3ccc4c(c3C)COC4=O)cn2)c1C` [Example 88, (R)-5-(2-(((2-(4,5-dimethyl-1H-imidazol-1-yl)pyrimidin-5-yl)methyl)amino)-1-hydroxyethyl)-4-methylisobenzofuran-1(3H)-one] showed an inhibition at 1 µM of 3.6%. Further, at hROMK (human Kir1.1), the IC50 was 42 nM.
In turn, `Cc1cn(-c2ccc(CNC[C@H](O)c3ccc4c(c3C)COC4=O)cn2)nc1C#N` [Example 92, (R)-1-(5-(((2-hydroxy-2-(4-methyl-1-oxo-1,3-dihydroisobenzofuran-5-yl)ethyl)amino)methyl)pyridin-2-yl)-4-methyl-1H-pyrazole-3-carbonitrile] registered an inhibition at 1 µM on hERG channels of 24%. Besides, at hROMK (human Kir1.1), the IC50 was determined as 6.4 nM.
Regarding `Cc1cc(-n2cc(CNC[C@H](O)c3ccc4c(c3C)COC4=O)c(C(F)F)n2)ncc1C#N` [Example 93, (R)-6-(3-(difluoromethyl)-4-(((2-hydroxy-2-(4-methyl-1-oxo-1,3-dihydroisobenzofuran-5-yl)ethyl)amino)methyl)-1H-pyrazol-1-yl)-4-methylnicotinonitrile], the inhibition at 1 µM at hERG channels amounted to 29%. Also, the IC50 on hROMK (human Kir1.1) stood at 15 nM.
`Cc1cn(-c2ncc(CNC[C@H](O)c3ccc4c(c3C)COC4=O)cn2)nc1C#N` [Example 94, (R)-1-(5-(((2-hydroxy-2-(4-methyl-1-oxo-1,3-dihydroisobenzofuran-5-yl)ethyl)amino)methyl)pyrimidin-2-yl)-4-methyl-1H-pyrazole-3-carbonitrile] came in with an inhibition at 1 µM at hERG channels of 13%. Further, the IC50 at hROMK (human Kir1.1) was determined as 56 nM.
On to `Cc1c([C@@H](O)CNCc2cn(-c3ccc4oc(=O)n(C)c4c3)nc2C(F)(F)F)ccc2c1COC2=O` [Example 95, (R)-5-(4-(((2-hydroxy-2-(4-methyl-1-oxo-1,3-dihydroisobenzofuran-5-yl)ethyl)amino)methyl)-3-(trifluoromethyl)-1H-pyrazol-1-yl)-3-methylbenzo[d]oxazol-2(3H)-one], for which the inhibition at 1 µM on hERG channels amounted to 11%. Besides, the IC50 on hROMK (human Kir1.1) was 56 nM.
As for `Cc1c([C@@H](O)CNCc2cnc(-n3cnc(C(F)(F)F)c3)nc2)ccc2c1COC2=O` [Example 96, (R)-5-(1-hydroxy-2-(((2-(4-(trifluoromethyl)-1H-imidazol-1-yl)pyrimidin-5-yl)methyl)amino)ethyl)-4-methylisobenzofuran-1(3H)-one], the inhibition at 1 µM against hERG channels came out at 19%. In addition, on hROMK (human Kir1.1), the IC50 was found to be 62 nM.
At hERG channels, `COc1nn(-c2ccc(CNC[C@H](O)c3ccc4c(c3C)COC4=O)cn2)cc1C#N` [Example 104, (R)-1-(5-(((2-hydroxy-2-(4-methyl-1-oxo-1,3-dihydroisobenzofuran-5-yl)ethyl)amino)methyl)pyridin-2-yl)-3-methoxy-1H-pyrazole-4-carbonitrile] came in with an inhibition at 1 µM of 42%. On hROMK (human Kir1.1), the IC50 is 9.4 nM.
For `Cc1c([C@@H](O)CNCc2ccc(-n3ccnc3)nc2)ccc2c1COC2=O` [Example 109, (R)-5-(2-(((6-(1H-imidazol-1-yl)pyridin-3-yl)methyl)amino)-1-hydroxyethyl)-4-methylisobenzofuran-1(3H)-one], at hERG channels, the inhibition at 1 µM was determined as 12%. Besides, on hROMK (human Kir1.1), the IC50 worked out at 40 nM.
At hERG channels, `Cc1c([C@@H](O)CNCc2cnc(-n3cc(C#N)c(C(F)(F)F)n3)nc2)ccc2c1COC2=O` [Example 110, (R)-1-(5-(((2-hydroxy-2-(4-methyl-1-oxo-1,3-dihydroisobenzofuran-5-yl)ethyl)amino)methyl)pyrimidin-2-yl)-3-(trifluoromethyl)-1H-pyrazole-4-carbonitrile] registered an inhibition at 1 µM of 13%. In addition, the IC50 on hROMK (human Kir1.1) is 42 nM.
The compound `Cc1ncc(-c2ccc(CNC[C@H](O)c3ccc4c(c3C)COC4=O)cn2)s1` [Example 111, (R)-5-(1-hydroxy-2-(((6-(2-methylthiazol-5-yl)pyridin-3-yl)methyl)amino)ethyl)-4-methylisobenzofuran-1(3H)-one] had an inhibition at 1 µM at hERG channels of 69%. Besides, the IC50 on hROMK (human Kir1.1) was found to be 48 nM.

Source of the values: patent US10723723B2, “Substituted bicycle heterocyclic derivatives useful as ROMK channel inhibitors” (BRISTOL-MYERS SQUIBB COMPANY, priority 2016, dated 2020).
